Experimental data published in patent EP0093484A2, “Antibacterial monic acid derivatives” (BEECHAM GROUP PLC, priority 1982, dated 1983).
Converted amounts (≈) assume the structure as drawn.

Experiments:
M. suipneumoniae JF 435 = assay: Anti-mycoplasmal activity, MIC in Friis broth agarose; format: cell-based; settings: Mesomycoplasma hyopneumoniae, JF435, 144 h, Friis broth solidified with 0.9% agarose, 6 days incubation at 37°C, read-out: MIC
[1] = tested on: M. suipneumoniae J2206/183b; assay: as above; format: cell-based; settings: Mesomycoplasma hyopneumoniae, 144 h, Friis broth solidified with 0.9% agarose, 6 days incubation at 37°C, read-out: MIC
M. suipneumoniae MS16 = assay: as above; format: cell-based; settings: Mesomycoplasma hyopneumoniae, 144 h, Friis broth solidified with 0.9% agarose, 6 days incubation at 37°C, read-out: MIC
M. suipneumoniae LABER = assay: as above; format: cell-based; settings: Mesomycoplasma hyopneumoniae, 144 h, Friis broth solidified with 0.9% agarose, 6 days incubation at 37°C, read-out: MIC
[2] = tested on: M. suipneumoniae ATCC 25095; assay: as above; format: cell-based; settings: Mesomycoplasma hyopneumoniae, ATCC25095, 144 h, Friis broth solidified with 0.9% agarose, 6 days incubation at 37°C, read-out: MIC
[3] = tested on: M. suipneumoniae NCTC 10110; assay: as above; format: cell-based; settings: Mesomycoplasma hyopneumoniae, NCTC10110, 144 h, Friis broth solidified with 0.9% agarose, 6 days incubation at 37°C, read-out: MIC
M. hyorhinis ATCC 25021 = assay: as above; format: cell-based; settings: Mesomycoplasma hyorhinis, ATCC25021, 144 h, Friis broth solidified with 0.9% agarose, 6 days incubation at 37°C, read-out: MIC
M. bovis NCTC 10131 = assay: microbe, parasite or virus in culture; format: cell-based; settings: NCTC10131, 144 h
[4] = tested on: M. bovigenitalium ATCC 14173; assay: Anti-mycoplasmal activity, MIC in Friis broth agarose; format: cell-based; settings: 144 h, Friis broth solidified with 0.9% agarose, 6 days incubation at 37°C, read-out: MIC
M. dispar NCTC 10125 = assay: as above; format: cell-based; settings: 144 h, Friis broth solidified with 0.9% agarose, 6 days incubation at 37°C, read-out: MIC
M. gallisepticum S6 = assay: as above; format: cell-based; settings: Mycoplasmoides gallisepticum, 144 h, Friis broth solidified with 0.9% agarose, 6 days incubation at 37°C, read-out: MIC
E. coli NCTC 10418 [5] = assay: Human bacteria, MIC by serial dilution in nutrient agar; format: cell-based; settings: Escherichia coli, NCTC10418; E. coli NCTC 10418 (human panel); nutrient agar with 5% chocolated horse blood; 18 hours at 37°C; read-out: MIC
E. coli ESS = assay: as above; format: cell-based; settings: Escherichia coli, nutrient agar with 5% chocolated horse blood, 18 hours at 37°C, read-out: MIC
K. aerogenes A = assay: as above; format: cell-based; settings: Klebsiella aerogenes, nutrient agar with 5% chocolated horse blood, 18 hours at 37°C, read-out: MIC
Ps. aeruginosa 10662 = assay: as above; format: cell-based; settings: Pseudomonas aeruginosa, nutrient agar with 5% chocolated horse blood, 18 hours at 37°C, read-out: MIC
[6] = tested on: Pasteurella multocida 1633; assay: as above; format: cell-based; settings: nutrient agar with 5% chocolated horse blood, 18 hours at 37°C, read-out: MIC
[7] = tested on: Haemophilus influenzae Q1; assay: as above; format: cell-based; settings: nutrient agar with 5% chocolated horse blood, 18 hours at 37°C, read-out: MIC
[8] = tested on: Neisseria catarrhalis 1502; assay: as above; format: cell-based; settings: nutrient agar with 5% chocolated horse blood, 18 hours at 37°C, read-out: MIC
Sarcina lutea 8340 = assay: as above; format: cell-based; settings: Micrococcus luteus, nutrient agar with 5% chocolated horse blood, 18 hours at 37°C, read-out: MIC
Staph. aureus Oxford [9] = assay: as above; format: cell-based; settings: Staphylococcus aureus; Staph. aureus Oxford (human panel); nutrient agar with 5% chocolated horse blood; 18 hours at 37°C; read-out: MIC
Staph. aureus Russell = assay: as above; format: cell-based; settings: Staphylococcus aureus, nutrient agar with 5% chocolated horse blood, 18 hours at 37°C, read-out: MIC
Strep. faecalis I = assay: as above; format: cell-based; settings: Enterococcus faecalis, nutrient agar with 5% chocolated horse blood, 18 hours at 37°C, read-out: MIC
[10] = tested on: Strep. pyogenes R80/421-A; assay: as above; format: cell-based; settings: Streptococcus pyogenes, nutrient agar with 5% chocolated horse blood, 18 hours at 37°C, read-out: MIC
Strep. agalactiae 2788-B = assay: as above; format: cell-based; settings: Streptococcus agalactiae, nutrient agar with 5% chocolated horse blood, 18 hours at 37°C, read-out: MIC
Strep. spp. 64/848-C = assay: as above; format: cell-based; settings: nutrient agar with 5% chocolated horse blood, 18 hours at 37°C, read-out: MIC
Strep. pneumoniae CN33 = assay: as above; format: cell-based; settings: Streptococcus pneumoniae, nutrient agar with 5% chocolated horse blood, 18 hours at 37°C, read-out: MIC
E. coli NCTC 10418 [11] = assay: Veterinary bacteria, MIC by two fold serial dilution in agar; settings: Escherichia coli, NCTC10418, 18 h
Method: (§1) The activity of the compounds of the Examples against various organisms important in veterinary infections was determined using two fold serial dilutions in Diagnostic Sensitivity Test Agar inoculated with 10^4 organisms.

S. dublin S7 = assay: as above; settings: Salmonella enterica, S7, 18 h
Method: as §1

S. typhimurium S18 = assay: as above; settings: Salmonella enterica, TYPHIMURIUM, 18 h
Method: as §1

Bord. bronchiseptica BO9 = assay: as above; settings: Bordetella bronchiseptica, BO9, 18 h
Method: as §1

Past. multocida PA1 = assay: as above; settings: Pasteurella multocida, PA1, 18 h
Method: as §1

Past. multocida PA2 = assay: as above; settings: Pasteurella multocida, PA2, 18 h
Method: as §1

[12] = tested on: Corynebacterium pyogenes CY1; assay: as above; settings: CY1, 18 h
Method: as §1

[13] = tested on: Staph. aureus B4 (pen. resistant); assay: as above; settings: Staphylococcus aureus, 18 h
Method: as §1

[14] = tested on: Staph. aureus 152 (pen. sens.); assay: as above; settings: Staphylococcus aureus, 18 h
Method: as §1

Staph. aureus Oxford [15] = assay: as above; settings: Staphylococcus aureus, 18 h
Method: as §1

[16] = tested on: Strep. suis (group D) SPS11; assay: as above; settings: Streptococcus suis, 18 h
Method: as §1

Strep. uberis SPU1 = assay: as above; settings: Streptococcus uberis, SPU1, 18 h
Method: as §1

Strep. agalactiae SPA1 = assay: as above; settings: Streptococcus agalactiae, SPA1, 18 h
Method: as §1

Structure (SMILES) | MIC (M. suipneumoniae JF 435) [µg/mL] | MIC [1] [µg/mL] | MIC (M. suipneumoniae MS16) [µg/mL] | MIC (M. suipneumoniae LABER) [µg/mL] | MIC [2] [µg/mL] | MIC [3] [µg/mL] | MIC (M. hyorhinis ATCC 25021) [µg/mL] | MIC (M. bovis NCTC 10131) [µg/mL] | MIC [4] [µg/mL] | MIC (M. dispar NCTC 10125) [µg/mL] | MIC (M. gallisepticum S6) [µg/mL] | MIC (E. coli NCTC 10418 [5]) [µg/mL] | MIC (E. coli ESS) [µg/mL] | MIC (K. aerogenes A) [µg/mL] | MIC (Ps. aeruginosa 10662) [µg/mL] | MIC [6] [µg/mL] | MIC [7] [µg/mL] | MIC [8] [µg/mL] | MIC (Sarcina lutea 8340) [µg/mL] | MIC (Staph. aureus Oxford [9]) [µg/mL] | other results
CSc1ccc(COC(=O)C=C(C)CC2OCC(CC3OC3C(C)C(C)O)C(O)C2O)cc1 (stereo not drawn) [Example 1, p-Methylthiobenzyl monate A] | 0.5 (≈ 1.04 µM) | 0.5 (≈ 1.04 µM) | 0.25 (≈ 0.52 µM) | 0.25 (≈ 0.52 µM) | 0.5 (≈ 1.04 µM) | 0.5 (≈ 1.04 µM) | 0.25 (≈ 0.52 µM) | ≤ 0.01 | 0.025 (≈ 0.052 µM) | 0.1 (≈ 0.208 µM) | 2.5 (≈ 5.2 µM) | 100 (≈ 208 µM) | 1 (≈ 2.08 µM) | > 100 | > 100 | 1 (≈ 2.08 µM) | 0.25 (≈ 0.52 µM) | 0.25 (≈ 0.52 µM) | > 100 | 0.5 (≈ 1.04 µM) | MIC (Staph. aureus Russell): 0.5 µg/mL (≈ 1.04 µM); MIC (Strep. faecalis I): 100 µg/mL (≈ 208 µM); MIC [10]: 0.1 µg/mL (≈ 0.208 µM); MIC (Strep. agalactiae 2788-B): 1 µg/mL (≈ 2.08 µM); MIC (Strep. spp. 64/848-C): 0.5 µg/mL (≈ 1.04 µM); MIC (Strep. pneumoniae CN33): 0.5 µg/mL (≈ 1.04 µM); MIC (E. coli NCTC 10418 [11]): > 80 µg/mL; MIC (S. dublin S7): > 80 µg/mL; MIC (S. typhimurium S18): > 80 µg/mL; MIC (Bord. bronchiseptica BO9): 5 µg/mL (≈ 10.4 µM); MIC (Past. multocida PA1): 0.156 µg/mL (≈ 0.325 µM); MIC (Past. multocida PA2): 0.156 µg/mL (≈ 0.325 µM); MIC [12]: > 80 µg/mL; MIC [13]: 0.156 µg/mL (≈ 0.325 µM); MIC [14]: 0.156 µg/mL (≈ 0.325 µM); MIC (Staph. aureus Oxford [15]): 0.156 µg/mL (≈ 0.325 µM); MIC [16]: 2.5 µg/mL (≈ 5.2 µM); MIC (Strep. uberis SPU1): 0.039 µg/mL (≈ 0.0811 µM); MIC (Strep. agalactiae SPA1): 0.312 µg/mL (≈ 0.649 µM)
CC(=CC(=O)OCc1ccc([S+](C)[O-])cc1)CC1OCC(CC2OC2C(C)C(C)O)C(O)C1O (stereo not drawn) [Example 2, p- Methylsulphinylbenzyl monate A] | 0.25 (≈ 0.503 µM) | 0.25 (≈ 0.503 µM) | 0.1 (≈ 0.201 µM) | 0.25 (≈ 0.503 µM) | 0.25 (≈ 0.503 µM) | 0.25 (≈ 0.503 µM) | 0.1 (≈ 0.201 µM) | ≤ 0.01 | 0.025 (≈ 0.0503 µM) | 0.1 (≈ 0.201 µM) | 1 (≈ 2.01 µM) | > 100 | 0.5 (≈ 1.01 µM) | > 100 | > 100 | 0.5 (≈ 1.01 µM) | 0.05 (≈ 0.101 µM) | 0.5 (≈ 1.01 µM) | > 100 | 2.5 (≈ 5.03 µM) | MIC (Staph. aureus Russell): 2.5 µg/mL (≈ 5.03 µM); MIC (Strep. faecalis I): 50 µg/mL (≈ 101 µM); MIC [10]: 0.5 µg/mL (≈ 1.01 µM); MIC (Strep. agalactiae 2788-B): 1 µg/mL (≈ 2.01 µM); MIC (Strep. spp. 64/848-C): 1 µg/mL (≈ 2.01 µM); MIC (Strep. pneumoniae CN33): 1 µg/mL (≈ 2.01 µM); MIC (E. coli NCTC 10418 [11]): > 80 µg/mL; MIC (S. dublin S7): > 80 µg/mL; MIC (S. typhimurium S18): > 80 µg/mL; MIC (Bord. bronchiseptica BO9): 5 µg/mL (≈ 10.1 µM); MIC (Past. multocida PA1): 0.625 µg/mL (≈ 1.26 µM); MIC (Past. multocida PA2): 0.625 µg/mL (≈ 1.26 µM); MIC [12]: > 80 µg/mL; MIC [13]: 2.5 µg/mL (≈ 5.03 µM); MIC [14]: 1.25 µg/mL (≈ 2.52 µM); MIC (Staph. aureus Oxford [15]): 1.25 µg/mL (≈ 2.52 µM); MIC [16]: 2.5 µg/mL (≈ 5.03 µM); MIC (Strep. uberis SPU1): 0.156 µg/mL (≈ 0.314 µM); MIC (Strep. agalactiae SPA1): 0.625 µg/mL (≈ 1.26 µM)
CC(=CC(=O)OCc1ccc(S(C)(=O)=O)cc1)CC1OCC(CC2OC2C(C)C(C)O)C(O)C1O (stereo not drawn) [Example 3, p-Methylsulphonylbenzyl monate A] | 0.25 (≈ 0.488 µM) | 0.25 (≈ 0.488 µM) | 0.1 (≈ 0.195 µM) | 0.1 (≈ 0.195 µM) | 0.1 (≈ 0.195 µM) | 0.25 (≈ 0.488 µM) | 0.05 (≈ 0.0975 µM) | < 0.01 | ≤ 0.01 | 0.05 (≈ 0.0975 µM) | 0.5 (≈ 0.975 µM) | 100 (≈ 195 µM) | 0.5 (≈ 0.975 µM) | > 100 | > 100 | 0.25 (≈ 0.488 µM) | 0.05 (≈ 0.0975 µM) | 0.25 (≈ 0.488 µM) | > 100 | 1 (≈ 1.95 µM) | MIC (Staph. aureus Russell): 2.5 µg/mL (≈ 4.88 µM); MIC (Strep. faecalis I): 50 µg/mL (≈ 97.5 µM); MIC [10]: 0.25 µg/mL (≈ 0.488 µM); MIC (Strep. agalactiae 2788-B): 0.5 µg/mL (≈ 0.975 µM); MIC (Strep. spp. 64/848-C): 0.5 µg/mL (≈ 0.975 µM); MIC (Strep. pneumoniae CN33): 0.5 µg/mL (≈ 0.975 µM); MIC (E. coli NCTC 10418 [11]): 80 µg/mL (≈ 156 µM); MIC (S. dublin S7): > 80 µg/mL; MIC (S. typhimurium S18): > 80 µg/mL; MIC (Bord. bronchiseptica BO9): 2.5 µg/mL (≈ 4.88 µM); MIC (Past. multocida PA1): 0.025 µg/mL (≈ 0.0488 µM); MIC (Past. multocida PA2): 0.156 µg/mL (≈ 0.304 µM); MIC [12]: > 80 µg/mL; MIC [13]: 1.25 µg/mL (≈ 2.44 µM); MIC [14]: 1.25 µg/mL (≈ 2.44 µM); MIC (Staph. aureus Oxford [15]): 1.25 µg/mL (≈ 2.44 µM); MIC [16]: 2.5 µg/mL (≈ 4.88 µM); MIC (Strep. uberis SPU1): 0.312 µg/mL (≈ 0.609 µM); MIC (Strep. agalactiae SPA1): 0.625 µg/mL (≈ 1.22 µM)
